Results on 1 molecule are retold here after publication PMC9415822, “Amphotericin B-PEG Conjugates of ZnO Nanoparticles: Enhancement Antifungal Activity with Minimal Toxicity” (Pharmaceutics, 2022).

Structures are written as SMILES. Converted amounts (≈) assume the structure as drawn.

The subject of data set [1] is Candida albicans ATCC 64548. Description: In vitro antifungal assay, broth microdilution (MIC/MFC), C. albicans. In kind it is cell-based. The following applies: ATCC64548, SDA plates, 37 °C, 48 h. On the procedure:
The broth microdilution method was used to assess the antifungal susceptibility of free AMB, and ZnO, ZnO-AMB, and ZnO-AMB-PEG nanoparticles against Candida albicans ATCC 64548 and Cryptococcus neoformans ATCC 90112 according to the Clinical Laboratory and Standards Institute Guidelines (CLSI, 2015). The nanoparticle solutions were serially diluted in sterile saline to obtain dilutions ranging from 5.0 to 0.00625 µg/mL. Aliquots (100 µL) from different dilutions of different preparations were transferred to the wells of 96-well microtiter plate. Fresh cultures of the tested strains were suspended in RPMI 1640 provided with L-glutamine and MOPS at pH 7.0 to prepare suspensions with a turbidity approximating that of 0.5 McFarland Standard. The fungal suspensions were diluted 1:100 with RPMI 1640 to obtain cell density of 1 × 10^5 CFU/mL. Of the prepared fungal suspensions, 100 µL was added to all dilutions of nanoparticle preparations. […] The minimum inhibitory concentration (MIC) was considered as the lowest concentration that inhibited the visible turbidity. The experiment was repeated six times and both positive control (inoculated fungi in broth without any addition) and negative control (sterile broth without fungi) were included in the experiment. The minimum fungicidal concentration (MFC) was determined according to [23].

Data set [2] deals with Cryptococcus neoformans ATCC 90112. The data set can be described thus: In vitro antifungal assay, broth microdilution (MIC/MFC), C. neoformans. In kind it is cell-based. The protocol: The broth microdilution method was used to assess the antifungal susceptibility of free AMB, and ZnO, ZnO-AMB, and ZnO-AMB-PEG nanoparticles against Candida albicans ATCC 64548 and Cryptococcus neoformans ATCC 90112 according to the Clinical Laboratory and Standards Institute Guidelines (CLSI, 2015). The nanoparticle solutions were serially diluted in sterile saline to obtain dilutions ranging from 5.0 to 0.00625 µg/mL. Aliquots (100 µL) from different dilutions of different preparations were transferred to the wells of 96-well microtiter plate. Fresh cultures of the tested strains were suspended in RPMI 1640 provided with L-glutamine and MOPS at pH 7.0 to prepare suspensions with a turbidity approximating that of 0.5 McFarland Standard. The fungal suspensions were diluted 1:100 with RPMI 1640 to obtain cell density of 1 × 10^5 CFU/mL. Of the prepared fungal suspensions, 100 µL was added to all dilutions of nanoparticle preparations. The microtiter plates were incubated at 37 °C for 24 h for C. albicans, and 48 h for C. neoformans. The minimum inhibitory concentration (MIC) was considered as the lowest concentration that inhibited the visible turbidity. […] The minimum fungicidal concentration (MFC) was determined according to [23].
In general terms: Broth dilution looks for growth in wells or tubes with falling amounts of substance.

Data set [3] has as its system Male Wistar rats. Description: In vivo toxicity: hematological parameters after injection. Further details: species or system rat. As to conditions: 10 mg/kg intraperitoneal for seven days, blood on eighth day. On the procedure:
(§1) Male Wistar rats weighing 180–220 g were used in this study. The animals were housed in rooms with controlled temperature (23 ± 1 °C) and relative humidity (55 ± 5%) and were allowed free access to water and food during acclimatization. Animals were fasted for 24 h before the experiments but could drink water ad libitum. The animal study protocol was approved by the Ethical Committee, Pharmacy College, Prince Sattam Bin Abdulaziz University, Al-Kharj, KSA (approval number: PHARM-11-10-2021).
(§2) Blood parameters including count of leucocytes (WBC) and red blood cell (RBC), and hemoglobin concentration (Hb), and hemocrit percentage were employed to evaluate the hematological toxicity associated with AMB. Furthermore, the kidney functions were assessed by measuring blood urea nitrogen (BUN) and serum creatinine. Hepatic functions were evaluated by the measure of aspartate transaminase (AST) and alanine transaminase (ALT). Four groups of male Wistar rats, each composed of 5 rats weighing approximately 200 g were used in this study. Three groups were intraperitoneally injected with free AMB, ZnO-AMB or ZnO-AMB-PEG (10 mg/kg body weight) for a continuous seven days. The fourth group was left uninjected as control group. On the eighth day, all rats were anesthetized and euthanized by decapitation for hematological and biochemical assays.

The subject of data set [4] is Male Wistar rats. The data set can be described thus: In vivo toxicity: biochemical parameters (kidney and liver functions) after injection. The following applies: 10 mg/kg intraperitoneal for seven days, eighth day. The arrangement: species or system rat. On the procedure:
as §1, §2

Regarding `C[C@@H]1[C@H](O)[C@@H](C)/C=C/C=C/C=C/C=C/C=C/C=C/C=C/[C@H](O[C@@H]2O[C@H](C)[C@@H](O)[C@H](N)[C@@H]2O)C[C@@H]2O[C@](O)(C[C@@H](O)C[C@@H](O)[C@H](O)CC[C@@H](O)C[C@@H](O)CC(=O)O[C@H]1C)C[C@H](O)[C@H]2C(=O)O` [AMB, Amphotericin B], in data set [1], the MFC (usually the lowest tested concentration that kills the fungus rather than only halting it) is 0.6 µg/mL (≈ 0.649 µM). For the same molecule, the MIC (commonly the lowest concentration that inhibits growth of the organism) in data set [2] (ATCC90112, RPMI 1640, 37 °C, 48 h) worked out at 0.05 µg/mL (≈ 0.0541 µM). The molecule also yielded an MFC in data set [2] (ATCC90112, SDA plates, 37 °C, 72 h) of 0.4 µg/mL (≈ 0.433 µM). Also, in data set [3], the Hb was determined as 13.22 ± 0.95 g%, the Hematocrit turned out to be 37.01 ± 2.68%, the RBCs was 7.09 ± 0.61 ×10^6/μL and the WBCs is on record as 17.90 ± 2.46 ×10^3/μL. For the same molecule, in data set [4], the “Kidney Functions BUN” value is 66.52 ± 12.46 mg%, the “Kidney Functions Creatinine” value turned out to be 0.63 ± 0.11 mg%, the “Liver Functions ALT” value is reported as 100.49 ± 20.95 IU/L and the “Liver Functions AST” value was determined as 453.15 ± 120.19 IU/L.
